# Experimental data from US20210251963A1, “UREA DERIVATIVES FOR USE IN THE TREATMENT OF SUBJECTS WITH ELEVATED EXPRESSION AND/OR ACTIVITY OF SRPK1” (Scandion Oncology A/S, priority 2018, published 2021).
# Where two headings read alike, the source gives them in different places.
# How the values were obtained:
# AMPK (hum) = test: Premier Screen kinase activity screening (33P ATP filter binding); assay type: biochemical, human; settings: 10 μM SCO-101, mean of assay duplicates
# From the text: (§1) The kinase activity screening was done at MRC in Dundee. The screen was a so-called “Premier Screen” with 140 kinases. More specific information can be found here: http://www.kinase-screen.mrc.ac.uk/services/premier-screen
# (§2) The method is based on a radioactive filter binding assay using 33P ATP (Hastie, et al 2006. Nat Protoc. 2006; 1(2):968-71; Bain, et al 2007. Biochem J. 2007 Dec. 15; 408(3):297-315). This method is sensitive, accurate and provides a direct measure of kinase enzyme activity. A concentration of 10 μM SCO-101 was used.
# (§3) In the table below, the data is portrayed as the mean percentage activity of assay duplicates and a standard deviation. These percentage activities were calculated in comparison to DMSO controls. 10 μM SCO-101 reduced the activity of SRPK1 to 6% of the DMSO control.
# SRPK1 = target: T1, SRPK1 (Homo sapiens, UniProt Q96SB4); test: Premier Screen kinase activity screening and IC50 determination (33P ATP filter binding); assay type: biochemical
# T1 construct: purchased MRC in Dundee (Premier Screen service)
# T1 sequence (Q96SB4 whole entry): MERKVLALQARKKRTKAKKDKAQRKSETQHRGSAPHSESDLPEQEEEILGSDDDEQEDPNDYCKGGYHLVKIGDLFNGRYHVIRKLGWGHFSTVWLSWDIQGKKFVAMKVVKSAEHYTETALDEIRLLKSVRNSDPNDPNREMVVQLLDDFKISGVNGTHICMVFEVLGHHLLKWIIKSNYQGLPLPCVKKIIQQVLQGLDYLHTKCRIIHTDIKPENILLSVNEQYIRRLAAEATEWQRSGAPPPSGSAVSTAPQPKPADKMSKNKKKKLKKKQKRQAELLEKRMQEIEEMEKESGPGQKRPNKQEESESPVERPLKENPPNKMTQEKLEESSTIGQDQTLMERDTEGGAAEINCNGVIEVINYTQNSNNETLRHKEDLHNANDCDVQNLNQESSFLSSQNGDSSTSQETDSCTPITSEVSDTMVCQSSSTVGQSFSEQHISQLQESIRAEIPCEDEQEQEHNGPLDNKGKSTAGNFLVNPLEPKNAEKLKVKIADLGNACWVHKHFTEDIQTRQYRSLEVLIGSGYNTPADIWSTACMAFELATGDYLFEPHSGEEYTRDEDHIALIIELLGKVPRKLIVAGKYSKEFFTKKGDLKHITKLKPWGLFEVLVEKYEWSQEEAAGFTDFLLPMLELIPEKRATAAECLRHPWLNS
# From the text: as §1, §2, §3
# This experiment was technically carried out as described in example 1, also done by MRC in Dundee. However, in this experiment 10 different concentrations of SCO-101 was applied in order to determine the half maximal inhibitory concentration (IC50). The following concentrations (in nM) were applied: 1.5, 5, 15, 50, 150, 500, 1500, 5000, […] and 50000. This experiment generated a dose response curve (FIG. 1), which confirmed the SCO-101 mediated inhibition of SRPK1. The IC50 value was determined to be 3.0 μM (Table 2).
# Src = target: T2, Src (Homo sapiens, UniProt P12931); test: Premier Screen kinase activity screening (33P ATP filter binding); assay type: biochemical; settings: 10 μM SCO-101, mean of assay duplicates, read-out: Kinase activity (percentage of DMSO control)
# T2 construct: purchased MRC Dundee, Premier Screen (contract screening service)
# T2 sequence (P12931 whole entry, species assumed): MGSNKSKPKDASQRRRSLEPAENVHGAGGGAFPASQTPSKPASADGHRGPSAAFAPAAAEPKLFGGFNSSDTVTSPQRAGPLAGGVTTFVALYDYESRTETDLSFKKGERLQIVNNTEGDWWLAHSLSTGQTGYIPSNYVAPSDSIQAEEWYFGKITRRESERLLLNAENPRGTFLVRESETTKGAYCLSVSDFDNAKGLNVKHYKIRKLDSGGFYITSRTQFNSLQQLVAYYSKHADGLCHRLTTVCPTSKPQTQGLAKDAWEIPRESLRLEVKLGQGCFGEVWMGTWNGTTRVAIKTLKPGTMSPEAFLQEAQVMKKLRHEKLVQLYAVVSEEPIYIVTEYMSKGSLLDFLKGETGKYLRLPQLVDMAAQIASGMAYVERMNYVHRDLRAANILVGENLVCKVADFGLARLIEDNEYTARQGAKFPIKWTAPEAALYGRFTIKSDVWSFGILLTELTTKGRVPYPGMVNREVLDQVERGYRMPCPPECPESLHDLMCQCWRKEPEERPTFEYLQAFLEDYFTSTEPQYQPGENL
# From the text: as §1, §2, §3
# CLK2 = target: T3, CLK2 (Homo sapiens, UniProt P49760); test: as above; assay type: biochemical; settings: 10 μM SCO-101, mean of assay duplicates, read-out: Kinase activity (percentage of DMSO control)
# T3 construct: MRC in Dundee (screening service)
# From the text: as §1, §2, §3
# SIK3 = target: T4, SIK3 (Homo sapiens, UniProt Q9Y2K2); test: as above; assay type: biochemical; settings: 10 μM SCO-101, mean of assay duplicates, read-out: Kinase activity (percentage of DMSO control)
# T4 construct: purchased MRC in Dundee (Premier Screen service)
# From the text: as §1, §2, §3
# p38d MAPK = p38d MAPK (Homo sapiens, UniProt O15264); test: as above; assay type: biochemical; settings: 10 μM SCO-101, mean of assay duplicates, read-out: Kinase activity (percentage of DMSO control)
# From the text: as §1, §2, §3
# RSK2 = target: T5, RSK2 (Homo sapiens, UniProt P51812); test: as above; assay type: biochemical; settings: 10 μM SCO-101, mean of assay duplicates, read-out: Kinase activity (percentage of DMSO control)
# T5 construct: purchased MRC in Dundee (Premier Screen service)
# From the text: as §1, §2, §3
# MKK6 = target: T6, MKK6 (Homo sapiens, UniProt P52564); test: as above; assay type: biochemical; settings: 10 μM SCO-101, mean of assay duplicates, read-out: Kinase activity (percentage of DMSO control)
# T6 construct: purchased MRC Dundee, Premier Screen (contract screening service)
# From the text: as §1, §2, §3
# GSK3b = target: T7, GSK3b (Homo sapiens, UniProt P49841); test: as above; assay type: biochemical; settings: 10 μM SCO-101, mean of assay duplicates, read-out: Kinase activity (percentage of DMSO control)
# T7 construct: MRC Dundee (screening service)
# T7 sequence (P49841 whole entry, species assumed): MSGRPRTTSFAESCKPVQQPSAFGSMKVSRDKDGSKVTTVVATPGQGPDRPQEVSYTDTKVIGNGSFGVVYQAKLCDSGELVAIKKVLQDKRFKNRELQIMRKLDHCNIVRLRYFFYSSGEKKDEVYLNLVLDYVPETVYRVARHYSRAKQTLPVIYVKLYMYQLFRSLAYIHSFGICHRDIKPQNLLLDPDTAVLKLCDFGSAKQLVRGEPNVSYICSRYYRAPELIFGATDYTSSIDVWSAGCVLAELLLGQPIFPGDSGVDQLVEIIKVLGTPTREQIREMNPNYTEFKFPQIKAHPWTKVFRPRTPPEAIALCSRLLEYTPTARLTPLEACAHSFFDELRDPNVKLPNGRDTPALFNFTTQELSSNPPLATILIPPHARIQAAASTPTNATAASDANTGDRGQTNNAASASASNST
# From the text: as §1, §2, §3
# MARK4 = target: T8, MARK4 (Homo sapiens, UniProt Q96L34); test: as above; assay type: biochemical; settings: 10 μM SCO-101, mean of assay duplicates, read-out: Kinase activity (percentage of DMSO control)
# T8 construct: MRC in Dundee (screening service)
# T8 sequence (Q96L34 whole entry, species assumed): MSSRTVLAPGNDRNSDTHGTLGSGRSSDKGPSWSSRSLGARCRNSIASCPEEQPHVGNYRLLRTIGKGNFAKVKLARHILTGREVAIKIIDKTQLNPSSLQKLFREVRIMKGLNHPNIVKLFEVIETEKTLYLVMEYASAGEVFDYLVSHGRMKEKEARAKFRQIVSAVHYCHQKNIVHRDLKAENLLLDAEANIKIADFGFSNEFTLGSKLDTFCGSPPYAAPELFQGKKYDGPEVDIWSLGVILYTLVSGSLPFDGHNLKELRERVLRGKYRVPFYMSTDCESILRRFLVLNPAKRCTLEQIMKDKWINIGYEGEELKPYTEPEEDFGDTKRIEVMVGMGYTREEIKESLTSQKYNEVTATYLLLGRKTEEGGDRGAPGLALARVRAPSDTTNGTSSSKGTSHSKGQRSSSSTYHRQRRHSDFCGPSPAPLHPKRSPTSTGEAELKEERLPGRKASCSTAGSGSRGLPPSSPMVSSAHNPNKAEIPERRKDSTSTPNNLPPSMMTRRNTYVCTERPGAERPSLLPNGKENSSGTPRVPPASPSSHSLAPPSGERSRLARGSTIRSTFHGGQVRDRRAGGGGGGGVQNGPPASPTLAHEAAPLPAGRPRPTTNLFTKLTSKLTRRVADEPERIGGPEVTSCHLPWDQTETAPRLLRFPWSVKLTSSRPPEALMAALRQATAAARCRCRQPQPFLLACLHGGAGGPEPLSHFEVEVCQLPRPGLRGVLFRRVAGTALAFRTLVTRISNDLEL
# From the text: as §1, §2, §3
# OSR1 = target: T9, OSR1 (Homo sapiens, UniProt O95747); test: as above; assay type: biochemical; settings: 10 μM SCO-101, mean of assay duplicates, read-out: Kinase activity (percentage of DMSO control)
# T9 construct: MRC in Dundee (screening service)
# From the text: as §1, §2, §3
# CSK = target: T10, CSK (Homo sapiens, UniProt P41240); test: as above; assay type: biochemical; settings: 10 μM SCO-101, mean of assay duplicates, read-out: Kinase activity (percentage of DMSO control)
# T10 construct: purchased MRC Dundee, Premier Screen (contract screening service)
# T10 sequence (P41240 whole entry, species assumed): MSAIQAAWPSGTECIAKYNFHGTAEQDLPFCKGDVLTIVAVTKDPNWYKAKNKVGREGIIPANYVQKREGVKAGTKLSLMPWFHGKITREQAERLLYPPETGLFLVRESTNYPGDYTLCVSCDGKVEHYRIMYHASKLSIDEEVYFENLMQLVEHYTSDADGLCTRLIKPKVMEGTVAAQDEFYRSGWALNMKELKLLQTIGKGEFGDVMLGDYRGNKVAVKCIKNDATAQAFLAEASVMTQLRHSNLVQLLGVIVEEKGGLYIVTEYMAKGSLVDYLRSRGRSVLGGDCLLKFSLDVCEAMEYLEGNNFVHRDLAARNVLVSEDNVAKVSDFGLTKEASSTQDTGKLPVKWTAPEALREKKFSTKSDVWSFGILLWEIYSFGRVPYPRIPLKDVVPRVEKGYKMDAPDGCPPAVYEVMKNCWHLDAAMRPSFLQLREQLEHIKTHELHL
# From the text: as §1, §2, §3
# ASK1 = target: T11, ASK1 (Homo sapiens, UniProt Q99683); test: as above; assay type: biochemical; settings: 10 μM SCO-101, mean of assay duplicates, read-out: Kinase activity (percentage of DMSO control)
# T11 construct: purchased MRC in Dundee (Premier Screen service)
# From the text: as §1, §2, §3
# PKBb = target: T12, PKBb (Homo sapiens, UniProt P31751); test: as above; assay type: biochemical; settings: 10 μM SCO-101, mean of assay duplicates, read-out: Kinase activity (percentage of DMSO control)
# T12 construct: MRC in Dundee (screening service)
# From the text: as §1, §2, §3
# PDGFRA = target: T13, PDGFRA (Homo sapiens, UniProt P16234); test: as above; assay type: biochemical; settings: 10 μM SCO-101, mean of assay duplicates, read-out: Kinase activity (percentage of DMSO control)
# T13 construct: purchased MRC in Dundee (Premier Screen service)
# T13 sequence (P16234 24-1089, species assumed): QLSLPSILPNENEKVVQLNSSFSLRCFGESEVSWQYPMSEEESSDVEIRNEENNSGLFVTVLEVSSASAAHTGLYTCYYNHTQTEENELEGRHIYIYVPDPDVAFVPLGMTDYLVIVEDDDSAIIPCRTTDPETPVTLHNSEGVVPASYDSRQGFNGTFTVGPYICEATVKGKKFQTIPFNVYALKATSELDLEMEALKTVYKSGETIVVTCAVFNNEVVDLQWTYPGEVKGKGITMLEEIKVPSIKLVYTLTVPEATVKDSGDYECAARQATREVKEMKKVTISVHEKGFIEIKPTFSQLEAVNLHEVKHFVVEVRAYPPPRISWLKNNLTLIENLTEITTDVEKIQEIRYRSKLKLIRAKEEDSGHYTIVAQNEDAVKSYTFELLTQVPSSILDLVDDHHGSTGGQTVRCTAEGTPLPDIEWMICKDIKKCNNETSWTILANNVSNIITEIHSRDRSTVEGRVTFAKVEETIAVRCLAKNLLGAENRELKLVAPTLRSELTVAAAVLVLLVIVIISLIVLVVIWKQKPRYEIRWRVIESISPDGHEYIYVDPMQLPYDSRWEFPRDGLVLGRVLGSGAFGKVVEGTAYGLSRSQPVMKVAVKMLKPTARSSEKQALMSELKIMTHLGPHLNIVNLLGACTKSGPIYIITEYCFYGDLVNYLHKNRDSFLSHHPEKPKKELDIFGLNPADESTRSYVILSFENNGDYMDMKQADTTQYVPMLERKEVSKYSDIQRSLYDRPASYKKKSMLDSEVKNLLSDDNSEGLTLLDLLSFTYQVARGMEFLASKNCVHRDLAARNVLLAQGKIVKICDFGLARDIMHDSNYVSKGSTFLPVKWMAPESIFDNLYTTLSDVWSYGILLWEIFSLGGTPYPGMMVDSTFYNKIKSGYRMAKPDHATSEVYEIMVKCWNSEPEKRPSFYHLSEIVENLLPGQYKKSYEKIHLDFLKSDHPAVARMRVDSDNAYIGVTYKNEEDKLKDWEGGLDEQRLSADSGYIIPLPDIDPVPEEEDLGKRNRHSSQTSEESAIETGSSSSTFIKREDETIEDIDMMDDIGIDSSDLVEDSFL
# From the text: as §1, §2, §3
# HIPK1 = target: T14, HIPK1 (Homo sapiens, UniProt Q86Z02); test: as above; assay type: biochemical; settings: 10 μM SCO-101, mean of assay duplicates, read-out: Kinase activity (percentage of DMSO control)
# T14 construct: MRC Dundee (screening service)
# From the text: as §1, §2, §3
# VEG-FR = target: T15, VEG-FR (Homo sapiens, UniProt P17948); test: as above; assay type: biochemical; settings: 10 μM SCO-101, mean of assay duplicates, read-out: Kinase activity (percentage of DMSO control)
# T15 construct: purchased MRC in Dundee (Premier Screen service)
# From the text: as §1, §2, §3
# DDR2 = target: T16, DDR2 (Homo sapiens, UniProt Q16832); test: as above; assay type: biochemical; settings: 10 μM SCO-101, mean of assay duplicates, read-out: Kinase activity (percentage of DMSO control)
# T16 construct: purchased MRC in Dundee (Premier Screen service)
# From the text: as §1, §2, §3
# MARK3 = target: T17, MARK3 (Homo sapiens, UniProt P27448); test: as above; assay type: biochemical; settings: 10 μM SCO-101, mean of assay duplicates, read-out: Kinase activity (percentage of DMSO control)
# T17 construct: MRC Dundee (screening service)
# From the text: as §1, §2, §3
# ULK2 = target: T18, ULK2 (Homo sapiens, UniProt Q8IYT8); test: as above; assay type: biochemical; settings: 10 μM SCO-101, mean of assay duplicates, read-out: Kinase activity (percentage of DMSO control)
# T18 construct: MRC Dundee (screening service)
# From the text: as §1, §2, §3
# SYK = target: T19, SYK (Homo sapiens, UniProt P43405); test: as above; assay type: biochemical; settings: 10 μM SCO-101, mean of assay duplicates, read-out: Kinase activity (percentage of DMSO control)
# T19 construct: purchased MRC in Dundee (Premier Screen service)
# From the text: as §1, §2, §3
# MARK1 = target: T20, MARK1 (Homo sapiens, UniProt Q9P0L2); test: as above; assay type: biochemical; settings: 10 μM SCO-101, mean of assay duplicates, read-out: Kinase activity (percentage of DMSO control)
# T20 construct: purchased MRC in Dundee (Premier Screen service)
# From the text: as §1, §2, §3
# DYRK1A = target: T21, DYRK1A (Homo sapiens, UniProt Q13627); test: as above; assay type: biochemical; settings: 10 μM SCO-101, mean of assay duplicates, read-out: Kinase activity (percentage of DMSO control)
# T21 construct: purchased MRC Dundee, Premier Screen (contract screening service)
# From the text: as §1, §2, §3
# ULK1 = ULK1 (Homo sapiens, UniProt O75385); test: as above; assay type: biochemical; settings: 10 μM SCO-101, mean of assay duplicates, read-out: Kinase activity (percentage of DMSO control)
# From the text: as §1, §2, §3
# RSK1 = target: T22, RSK1 (Homo sapiens, UniProt Q15418); test: as above; assay type: biochemical; settings: 10 μM SCO-101, mean of assay duplicates, read-out: Kinase activity (percentage of DMSO control)
# T22 construct: MRC Dundee (screening service)
# T22 sequence (Q15418 whole entry, species assumed): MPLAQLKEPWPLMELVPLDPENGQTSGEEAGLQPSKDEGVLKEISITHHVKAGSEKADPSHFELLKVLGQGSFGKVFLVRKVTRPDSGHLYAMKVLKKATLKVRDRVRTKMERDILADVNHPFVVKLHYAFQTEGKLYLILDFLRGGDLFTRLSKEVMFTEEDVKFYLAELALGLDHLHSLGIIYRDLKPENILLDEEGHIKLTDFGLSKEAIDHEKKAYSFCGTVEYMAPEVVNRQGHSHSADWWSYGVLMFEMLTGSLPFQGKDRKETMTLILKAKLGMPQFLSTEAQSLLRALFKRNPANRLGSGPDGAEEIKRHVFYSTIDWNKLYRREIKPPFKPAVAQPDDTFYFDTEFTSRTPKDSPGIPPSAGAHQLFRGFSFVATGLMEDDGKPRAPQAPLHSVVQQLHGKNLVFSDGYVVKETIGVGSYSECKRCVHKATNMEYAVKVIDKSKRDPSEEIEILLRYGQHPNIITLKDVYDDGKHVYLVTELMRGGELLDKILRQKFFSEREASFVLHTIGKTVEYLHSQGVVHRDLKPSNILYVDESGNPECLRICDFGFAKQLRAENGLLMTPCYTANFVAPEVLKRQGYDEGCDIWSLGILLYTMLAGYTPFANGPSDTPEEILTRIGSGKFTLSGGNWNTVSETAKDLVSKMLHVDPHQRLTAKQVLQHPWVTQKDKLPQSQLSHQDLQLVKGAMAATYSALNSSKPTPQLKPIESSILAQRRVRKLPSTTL
# From the text: as §1, §2, §3
# TTBK2 = target: T23, TTBK2 (Homo sapiens, UniProt Q6IQ55); test: as above; assay type: biochemical; settings: 10 μM SCO-101, mean of assay duplicates, read-out: Kinase activity (percentage of DMSO control)
# T23 construct: purchased MRC Dundee, Premier Screen (contract screening service)
# From the text: as §1, §2, §3
# IRR = target: T24, IRR (Homo sapiens, UniProt P14616); test: as above; assay type: biochemical; settings: 10 μM SCO-101, mean of assay duplicates, read-out: Kinase activity (percentage of DMSO control)
# T24 construct: purchased MRC in Dundee (Premier Screen service)
# From the text: as §1, §2, §3
# PAK6 = PAK6 (Homo sapiens, UniProt Q9NQU5); test: as above; assay type: biochemical; settings: 10 μM SCO-101, mean of assay duplicates, read-out: Kinase activity (percentage of DMSO control)
# From the text: as §1, §2, §3
# DAPK1 = DAPK1 (Homo sapiens, UniProt P53355); test: as above; assay type: biochemical; settings: 10 μM SCO-101, mean of assay duplicates, read-out: Kinase activity (percentage of DMSO control)
# From the text: as §1, §2, §3
# MAPKAP-K3 = target: T25, MAPKAP-K3 (Homo sapiens, UniProt Q16644); test: as above; assay type: biochemical; settings: 10 μM SCO-101, mean of assay duplicates, read-out: Kinase activity (percentage of DMSO control)
# T25 construct: MRC in Dundee (screening service)
# T25 sequence (Q16644 whole entry, species assumed): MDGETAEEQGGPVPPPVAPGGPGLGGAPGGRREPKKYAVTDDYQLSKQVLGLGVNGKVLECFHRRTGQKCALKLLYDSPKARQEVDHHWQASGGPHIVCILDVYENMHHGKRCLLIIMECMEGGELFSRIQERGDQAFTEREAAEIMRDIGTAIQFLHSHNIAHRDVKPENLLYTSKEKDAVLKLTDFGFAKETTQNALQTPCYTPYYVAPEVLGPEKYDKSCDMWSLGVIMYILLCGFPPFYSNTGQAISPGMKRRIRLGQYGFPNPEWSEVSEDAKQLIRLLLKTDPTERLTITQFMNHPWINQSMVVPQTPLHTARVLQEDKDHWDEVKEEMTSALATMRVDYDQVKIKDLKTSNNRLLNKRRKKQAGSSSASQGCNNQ
# From the text: as §1, §2, §3
# MLK1 = target: T26, MLK1 (Homo sapiens, UniProt P80192); test: as above; assay type: biochemical; settings: 10 μM SCO-101, mean of assay duplicates, read-out: Kinase activity (percentage of DMSO control)
# T26 construct: MRC Dundee (screening service)
# From the text: as §1, §2, §3
structure (smiles),measurement,setting,value
O=C(Nc1cc(C(F)(F)F)cc(C(F)(F)F)c1)Nc1ccc(Br)cc1-c1nnn[nH]1 [SCO-101],Kinase activity (percentage of DMSO control),AMPK (hum),97 percentage of DMSO control
same,remaining activity at 10 µM,"SRPK1; 10 μM SCO-101, mean of assay duplicates, read-out: Kinase activity (percentage of DMSO control)",6%
same,IC50,"SRPK1; first determination, 10 concentrations, read-out: IC50",2.9 µM
same,IC50,"SRPK1; mean of two determinations, read-out: mean IC50",3 µM
same,IC50,"SRPK1; second determination, 10 concentrations, read-out: IC50",3 µM
same,remaining activity at 10 µM,Src,105%
same,remaining activity at 10 µM,CLK2,86%
same,remaining activity at 10 µM,SIK3,39%
same,remaining activity at 10 µM,p38d MAPK,113%
same,remaining activity at 10 µM,RSK2,64%
same,remaining activity at 10 µM,MKK6,108%
same,remaining activity at 10 µM,GSK3b,99%
same,remaining activity at 10 µM,MARK4,90%
same,remaining activity at 10 µM,OSR1,94%
same,remaining activity at 10 µM,CSK,106%
same,remaining activity at 10 µM,ASK1,136%
same,remaining activity at 10 µM,PKBb,84%
same,remaining activity at 10 µM,PDGFRA,62%
same,remaining activity at 10 µM,HIPK1,98%
same,remaining activity at 10 µM,VEG-FR,66%
same,remaining activity at 10 µM,DDR2,68%
same,remaining activity at 10 µM,MARK3,99%
same,remaining activity at 10 µM,ULK2,95%
same,remaining activity at 10 µM,SYK,62%
same,remaining activity at 10 µM,MARK1,74%
same,remaining activity at 10 µM,DYRK1A,112%
same,remaining activity at 10 µM,ULK1,114%
same,remaining activity at 10 µM,RSK1,100%
same,remaining activity at 10 µM,TTBK2,109%
same,remaining activity at 10 µM,IRR,131%
same,remaining activity at 10 µM,PAK6,123%
same,remaining activity at 10 µM,DAPK1,112%
same,remaining activity at 10 µM,MAPKAP-K3,85%
same,remaining activity at 10 µM,MLK1,98%
